The values that follow come from patent US6656971B2, “Trisubstituted carbocyclic cyclophilin binding compounds and their use” (Guilford Pharmaceuticals Inc., priority 2001, dated 2003).

Sequence of human recombinant CyPA (P62937 whole entry): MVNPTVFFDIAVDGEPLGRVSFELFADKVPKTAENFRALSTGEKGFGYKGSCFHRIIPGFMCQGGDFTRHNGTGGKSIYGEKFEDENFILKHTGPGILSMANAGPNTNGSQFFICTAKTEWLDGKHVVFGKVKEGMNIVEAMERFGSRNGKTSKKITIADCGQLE
T1 sequence (P10111 2-164): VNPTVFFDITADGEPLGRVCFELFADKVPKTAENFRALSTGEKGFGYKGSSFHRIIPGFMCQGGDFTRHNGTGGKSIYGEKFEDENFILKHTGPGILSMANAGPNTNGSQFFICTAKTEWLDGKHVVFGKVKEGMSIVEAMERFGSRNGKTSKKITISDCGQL

The target of the first experiment is human recombinant CyPA (Homo sapiens, UniProt P62937). Description: Semiautomated microtiter plate assay of rotamase activity inhibition, human recombinant CyPA. The format is biochemical. The settings on record: Table B, value without asterisk: human recombinant CyPA. On the procedure:
Rotamase inhibition was determined using a semiautomated microtiter plate assay modification of the above described assay [see Küllertz et al., Clin. Chem. 44, 502-508 (1998)]. All dilutions of CyPA, peptide substrate, and chymotrypsin were made in 35 mM ice-cold HEPES buffer. Fifty μL of CyPA solution is added to 50 μL of the peptide substrate solution (Phe-Pro-Phe p-nitroanilide, 0.16 mg/ml) in a glass microtiter well plate (the concentration of human recombinant CyP being adjusted so that the reaction rate is increased by a factor of 3 as compared to an uncatalyzed control reaction wherein the peptide substrate is degraded by chymotrypsin alone, in the absence of CyPA and test compound). Using a Beckman Multimek™ 96 automated 96-channel pipettor, 5 μL of test compound solution, or a DMSO blank, were added to each well for a 30 minute preincubation at 4° C. One hundred μL of chymotrypsin solution (1 mg/mL) were added to each well and the absorbance at 390 nm versus time was monitored for 9-10 minutes using a BioRad Ultramark plate reader maintained at 4° C. and the rate constants were determined from the absorbance versus time data files.
IC50 values which were obtained for representative compounds are presented in the following Table B. The cyclophilin utilized was a human recombinant CyPA. […] While CyP A was used in these examples, other CyP proteins can be substituted.
Take “3-{3,5-Bis-[3-(3,5-dichlorophenyl)ureido]-phenyl}propionic acid methyl ester [Compound 5]”: the IC50 (usually the midpoint of a concentration-inhibition curve) was 1300 nM.
On the same count and under the same terms, next, `COC(=O)CCc1cc(NC(=O)Nc2cc(Cl)cc(Cl)c2)cc(NC(=O)Nc2cc(Cl)cc(Cl)c2)c1` [Compound 1, 3-{3,5-Bis-[3-(3,5-dichloro-phenyl)-ureido]-phenyl}-propionic acid methyl ester]: 2940 nM; `O=C(Nc1cccc(C(F)(F)F)c1)c1cc(O)cc(C(=O)Nc2cccc(C(F)(F)F)c2)c1` [Compound 2, 5-Hydroxy-N,N′-bis-(3-trifluoromethyl-phenyl)-isophthalamide]: 15900 nM; `O=C(Nc1cccc(C(F)(F)F)c1)c1cc(C(=O)Nc2cccc(C(F)(F)F)c2)cc(-c2cccc3ccccc23)c1` [Compound 3, 5-Naphthalen-1-yl-N,N′-bis-(3-trifluoromethyl-phenyl)isophthalamide]: 3420 nM.
The same measure, in the same setting: next, `CC(C)(C)OC(=O)NCCCCCCNC(=O)c1cc(NC(=O)Nc2cc(Cl)cc(Cl)c2)cc(C(=O)Nc2cccc(C(F)(F)F)c2)c1` [Compound 4, {6-[3-[3-(3,5-Dichloro-phenyl)-ureido]-5-(3-trifluoromethyl-phenylcarbamoyl)-benzoylamino]hexyl}carbamic acid tert-butyl ester]: 833 nM.
The same measure, in the same setting: next, `O=C(Nc1cc(COc2ccc(Cl)c(Cl)c2)cc(NC(=O)c2cc(Cl)cc(Cl)c2)c1)c1cc(Cl)cc(Cl)c1` [Compound 6, 1,3-(3,5-Dichlorophenyl)-N-[5-(3,4-dichlorophenoxymethyl)-phenyl]amide]: 3790 nM; `O=S(=O)(Nc1cc(COc2ccc(Cl)c(Cl)c2)cc(NS(=O)(=O)c2cccc3ccccc23)c1)c1cccc2ccccc12` [Compound 7, 1,3-(1-Naphthalene)-N-[5-(3,4-dichloro-phenoxymethyl)-phenyl]-sulfonamide]: 2110 nM.
Regarding `O=C(Nc1cccc(C(F)(F)F)c1)c1cc(OCc2ccccc2)cc(OCc2ccccc2)c1` [Compound 8, 3,5-Di(benzyloxy)-3′-(trifluoromethyl)benzanilid], the IC50 amounted to 4760 nM.
Still for that read-out and setting: next, `CS/C(=N\c1cc(Cl)cc(Cl)c1)Nc1cc(NC(=O)c2cc(Cl)cc(Cl)c2)cc(Nc2cccc(C(F)(F)F)c2)c1` [Compound 9, N-(5-{[2-aza-2-(3,5-dichlorophenyl)-1-methylthiovinyl]amino}-3-{[3-(trifluoromethyl)phenyl]amino}phenyl)(3,5-dichlorophenyl)formamide]: 1580 nM; `S=C(Nc1cc(Cl)cc(Cl)c1)Nc1cc(NC(=S)Nc2cc(Cl)cc(Cl)c2)cc(Nc2ccc(Br)cc2)c1` [Compound 11, [(3,5-dichlorophenyl)amino]{[3-({[(3,5-dichlorophenyl)amino]thioxomethyl}amino)-5-[(4-bromophenyl)amino]phenyl]amino}methane-1-thione]: 807 nM.
Take `O=C(Nc1cc(CN2C(=O)c3ccccc3C2=O)cc(NC(=O)c2cccc(C(F)(F)F)c2)c1)c1cccc(C(F)(F)F)c1` [Compound 12, N-(5-[(1,3-dioxoisoindolin-2-yl)methyl]-3-{[3-(trifluoromethyl)phenyl]carbonylamino}phenyl)[3-(trifluoromethyl)phenyl]formamide]: the IC50 turned out to be 7710 nM.
On the same count and under the same terms, next, `O=C(Nc1cc(CNCc2cccc3ccccc23)cc(NC(=O)c2cccc(C(F)(F)F)c2)c1)c1cccc(C(F)(F)F)c1` [Compound 14, N-(5-{[(naphthylmethyl)amino]methyl}-3-{[3-(trifluoromethyl)phenyl]carbonyl-amino}phenyl)[3-(trifluoromethyl)phenyl]formamide]: 15100 nM; `O=C(Nc1cccc(C(F)(F)F)c1)c1cc(Oc2ccc3ccccc3c2)cc(C(=O)Nc2cccc(C(F)(F)F)c2)c1` [Compound 17, (5-(2-naphthyloxy)-3-{N-[3-(trifluoromethyl)phenyl]carbamoyl}phenyl)-N-[3-(trifluoromethyl)phenyl]formamide]: 1980 nM.
`O=C(Nc1cccc(C(F)(F)F)c1)c1cc(C(=O)Nc2cccc(C(F)(F)F)c2)cc(-c2ccc3ccccc3c2)c1` [Compound 18, (5-(2-naphthyl)-3-{N-[3-(trifluoromethyl)phenyl]carbamoyl}phenyl)-N-[3-(trifluoromethyl)phenyl]formamide]: the IC50 amounted to 1320 nM.
Take `O=C(NCCc1ccc(Cl)c(Cl)c1)c1cc(COc2ccc(Cl)c(Cl)c2)cc(C(=O)NCCc2ccc(Cl)c(Cl)c2)c1` [Compound 19, 1-[(3,4-dichlorophenyl)oxymethy]-3,5-bis-{[2-(3,4-dichlorophenyl)ethyl]aminocarbonyl}benzene]: the IC50 stood at 2800 nM.
For the molecule `N#Cc1cccc(NC(=O)c2cc(OCc3ccc(-c4ccccc4C#N)cc3)cc(C(=O)Nc3cccc(C#N)c3)c2)c1` [Compound 22, 1-[4-(2-cyanophenyl)benzyl]loxy-3,5-bis-[(3-cyanophenyl)aminocarbonyl]benzene], the IC50 was determined as 4710 nM.
With `O=S(=O)(c1cc(Cl)cc(Cl)c1)N(c1ccc(Br)c(N(S(=O)(=O)c2cc(Cl)cc(Cl)c2)S(=O)(=O)c2cc(Cl)cc(Cl)c2)c1)S(=O)(=O)c1cc(Cl)cc(Cl)c1` [Compound 30, bis[(3,5-dichlorophenyl)sulfonyl](3-{bis[(3,5-dichlorophenyl)sulfonyl]amino)-4-bromophenyl)amine], the IC50 worked out at 10000 nM.
The same measure, in the same setting: next, `S=C(Nc1cc(Cl)cc(Cl)c1)Nc1ccc(Nc2ccc(Oc3ccccc3)cc2)c(NC(=S)Nc2cc(Cl)cc(Cl)c2)c1` [Compound 40, [(3,5-dichlorophenyl)amino]{[3-({[(3,5-dichlorophenyl)amino]thioxomethyl}amino)-4-[(4-phenoxyphenyl)amino]phenyl]amino}methane-1-thione]: 719 nM; `O=C(CCCCc1ccccc1)Nc1cc(Br)cc(C(=O)NNC(=S)Nc2ccc(Cl)c(Cl)c2)c1` [Compound 53, 1-{3-[(5-Phenyl)valeroylamino]-5-bromobenzoyl}-4-(3,4-dichlorophenyl) thiosemicarbazide]: 392 nM.
Still for that read-out and setting: for “(3,5-dichlorophenyl)-N-[5-({[(3,5-dichlorophenyl)amino]thioxomethyl}amino)-3-{[3-(trifluoromethyl)phenyl]amino }phenyl]formamide [Compound 10]” the value was 933 nM; for “(5-(2-(2-5,6,7,8-tetrahydronaphthyl)ethyl)-3-{N-[3-(trifluoromethyl)phenyl]carbamoyl}phenyl)-N-[3-(trifluoromethyl)phenyl]formamide [Compound 23]”, 7850 nM.
Turning to “(5-(2-(2-naphthyl)ethyl)-3-{N-[3-(trifluoromethyl)phenyl]carbamoyl}phenyl)-N-[3-(trifluoromethyl)phenyl]formamide [Compound 24]”, the half-maximal inhibitory concentration (IC50) stood at 7170 nM.
Take “[(3,5-dichlorophenyl)amino]{[3-({[(3,5-dichlorophenyl) amino]thioxo-methyl}amino)-4-(3,5-dimethylpyrazolyl)phenyl]amino}methane-1-thione [Compound 39]”: the IC50 was 1120 nM.

The next experiment has as its target T1, recombinant rat CyPA-GST fusion protein (Rattus norvegicus, UniProt P10111).
T1 construct: made in house; host or cells: E. coli BL21
Briefly: Rotamase (PPIase) inhibition, chymotrypsin-coupled cuvette assay, rat CyPA-GST fusion protein. As to conditions: Table A, value with asterisk: recombinant rat CyPA-GST fusion protein. The class given is biochemical.
As to `O=C1c2ccccc2C(=O)N1Cc1cc(NC(=S)Nc2cc(Cl)cc(Cl)c2)cc(NC(=S)Nc2cc(Cl)cc(Cl)c2)c1` [Compound 27, 2-{[3,5-bis({[(3,5-dichlorophenyl)amino]thioxomethyl}amino)phenyl]methyl}iso-indoline-1,3-dione], the IC50 came to 214 nM.
Turning to `COc1ccc(NC(=O)Nc2cc(Cl)cc(Cl)c2)cc1OCc1cc(Cl)cc(Cl)c1` [Compound 28, 1-(3,5-Dichlorophenyl)-3-[3-(3,5-dichlorobenzyloxy)-4-methoxyphenyl]urea], the IC50 worked out at 914 nM.
As to `O=C(Nc1cc(Cl)cc(Cl)c1)Nc1ccc(Br)c(N(S(=O)(=O)c2cc(Cl)cc(Cl)c2)S(=O)(=O)c2cc(Cl)cc(Cl)c2)c1` [Compound 29, N-(3-{bis[(3,5-dichlorophenyl)sulfonyl]amino}-4-bromophenyl)[(3,5-dichlorophenyl)amino]formamide], the IC50 was 10000 nM.
Turning to `S=C(Nc1cc(Cl)cc(Cl)c1)Nc1cc(OCc2cccc3ccccc23)ccc1Br` [Compound 33, [(3,5-Dichlorophenyl)amino]{[2-bromo-5-(naphthylmethoxy)phenyl]amino}methane-1-thione], the 50% inhibitory concentration (IC50) was 707 nM.
Take `S=C(Nc1cc(Cl)cc(Cl)c1)Nc1ccc(Nc2ccc(Cl)cc2)c(NC(=S)Nc2cc(Cl)cc(Cl)c2)c1` [Compound 36, [(3,5-dichlorophenyl)amino]{[3-({[(3,5-dichlorophenyl)amino]thioxo-methyl}amino)-4-[(4-chlorophenyl)amino]phenyl]amino}methane-1-thione]: the IC50 amounted to 609 nM.
Same read-out and setting: for `COc1ccc(NC(=S)Nc2cc(Cl)cc(Cl)c2)cc1COc1cc(Cl)cc(Cl)c1` [Compound 45, 1-[3-(3,5-Dichlorophenoxy)methyl-4-methoxyphenyl]-3-(3,5-dichlorophenyl)thiourea] the value was 609 nM; for `COc1ccc(NC(=S)NC(=O)c2ccccc2)cc1COc1cc(Cl)cc(Cl)c1` [Compound 46, 1-[3-(3,5-Dichlorophenoxy)methyl-4-methoxyphenyl]-3-benzoylthiourea], 3770 nM.
